From publication PMC6381276 (mBio, 2019) come the findings set out here.

The target in the assay is McpN (PA2788) chemoreceptor (Pseudomonas aeruginosa, UniProt Q9I055). Kind of assay: biochemical.
Chain of McpN (PA2788) chemoreceptor (Q9I055 44-179): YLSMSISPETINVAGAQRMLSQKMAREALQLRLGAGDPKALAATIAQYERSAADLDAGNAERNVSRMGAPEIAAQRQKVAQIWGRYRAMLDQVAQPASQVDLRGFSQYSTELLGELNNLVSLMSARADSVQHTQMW

As a reminder, the Kd is the concentration at which binding is half-saturated. A lower Kd goes with higher affinity. In turn, `O=[N+]([O-])O` [nitrate] registered a dissociation constant Kd of 47 ± 8 µM.
